Measurements published in article PMC10969742, “A Phase I Study of the Oral Dual-Acting Pan-PI3K/mTOR Inhibitor Bimiralisib in Patients with Advanced Solid Tumors” (Cancers, 2024).
“Also recorded” adds a separate entry of the source.

Assays:
[1] = test system: patients with advanced solid tumors; test: Phase 1 3 + 3 dose escalation: DLTs and MTD determination; type: in vivo
Method: The primary objective of the study was to determine the MTD of bimiralisib administered according to three different dosing schedules. Bimiralisib was formulated as 20 mg and 80 mg capsules for oral administration. The first dosing schedule to be evaluated was continuous (once daily) dosing over a 21-day cycle. […] Patients enrolled in the continuous schedule and intermittent schedule A received a single lead-in dose, administered on […] prior to the start of the first 21-day treatment cycle, to characterize single-dose pharmacokinetics. Based on the previous first-in-human trial with bimiralisib, together with the expected toxicity profile of PI3K/mTOR inhibitors, the starting dose (dose-level 1) of bimiralisib in Study PQR309-003 was set at 80 mg daily.
Enrollment of cohorts into the dose escalation followed a typical 3 + 3 design, with escalation/de-escalation based on the dose-limiting toxicities observed as described in Table 1 and Table 2. Up to 5 dose levels were planned in the continuous schedule to a maximum of 180 mg daily. For the intermittent schedules, up to 7 dose levels were planned, to a maximum of 240 mg daily. One dose level for de-escalation was planned for all schedules. Patient cohorts, consisting initially of three patients, were enrolled depending on the safety and tolerability of the initial cohort. Patients were treated until disease progression, unacceptable toxicity, patient’s request for withdrawal, investigator judgment, or death, whichever came first.
Safety was monitored by physical examination, vital signs, weight, electrocardiogram, ECOG performance status, laboratory evaluations (including glucose monitoring), and patient self-reported mood questionnaires, as well as AEs. All AEs were coded with NCI Common Terminology Criteria for Adverse Events (CTCAE) v4.03 [27]. The MTD was defined as the maximum dose level at which ≤1/6 patients have DLTs. A DLT was defined by the occurrence of grade 3 or 4 AE that is possibly, probably, or definitely related to bimiralisib within the first 21 days of treatment. Bimiralisib treatment was interrupted if patients experienced any DLTs. If the patient derived benefit from the treatment as determined by the investigator, treatment could be resumed at a lower dose in agreement with the study sponsor.

[2] = test system: head and neck squamous cancer with loss of function NOTCH1T1997M mutations; details: eight patients, intermittent bimiralisib regimen; cited from earlier work

Nc1cc(C(F)(F)F)c(-c2nc(N3CCOCC3)nc(N3CCOCC3)n2)cn1 [bimiralisib, 5-(4,6-Dimorpholino-1,3,5-triazin-2-yl)-4-(trifluoromethyl)pyridin-2-amine]
Maximum tolerated dose (MTD) ([1]; continuous schedule (once daily)): 80 mg | Dose-limiting toxicity (DLT), kind ([1]; in vivo): grade three fatigue | Patients with dose interruptions or discontinuation due to treatment-related AEs during first 21-day dosing cycle ([1]; in vivo): Four of these five | Maximum tolerated dose (MTD) ([1]; intermittent schedules A and B, up to 200 mg): No MTD was reached; also recorded: neither intermittent schedule reached MTD | Confirmed PR, number of patients [2]: one | SDs, number of patients [2]: three
